Data published in BindingDB's records for doi:10.3109/14756360902888200 (Chung Shan Medical University Hospital, 2010).

Molecular target: Carboxylic ester hydrolase (Equus caballus, UniProt Q9N1N9)
Test: BChE Inhibition Assay
Details: pH 7; 25 °C
Description: BChE inhibitions by the carbamate inhibitors were assayed by the Ellman method [Ellman et al., Biochem. Pharm., 7:88-95]. BChE-catalyzed hydrolysis of BTCh in the presence of the carbamate inhibitors and DTNB was followed continuously at 410 nm on a UV-visible spectrometer. The temperature was maintained at 25.0°C by a refrigerated circulating water bath. All inhibition reactions were performed in sodium phosphate buffer (1 mL, 0.1 M, pH 7.0) containing NaCl (0.1 M), acetonitrile (2% by volume), triton X-100 (0.5% by weight), substrate (ATCh for AChE or BTCh for BChE) (50 μM), DTNB, and varying concentrations of inhibitor. Requisite volumes of stock solution of substrateand inhibitors in acetonitrile were injected into the reaction buffer via a pipet. BChE was dissolved in sodium phosphate buffer (0.1 M, pH 7.0).

Sequence of Carboxylic ester hydrolase (Q9N1N9 whole entry): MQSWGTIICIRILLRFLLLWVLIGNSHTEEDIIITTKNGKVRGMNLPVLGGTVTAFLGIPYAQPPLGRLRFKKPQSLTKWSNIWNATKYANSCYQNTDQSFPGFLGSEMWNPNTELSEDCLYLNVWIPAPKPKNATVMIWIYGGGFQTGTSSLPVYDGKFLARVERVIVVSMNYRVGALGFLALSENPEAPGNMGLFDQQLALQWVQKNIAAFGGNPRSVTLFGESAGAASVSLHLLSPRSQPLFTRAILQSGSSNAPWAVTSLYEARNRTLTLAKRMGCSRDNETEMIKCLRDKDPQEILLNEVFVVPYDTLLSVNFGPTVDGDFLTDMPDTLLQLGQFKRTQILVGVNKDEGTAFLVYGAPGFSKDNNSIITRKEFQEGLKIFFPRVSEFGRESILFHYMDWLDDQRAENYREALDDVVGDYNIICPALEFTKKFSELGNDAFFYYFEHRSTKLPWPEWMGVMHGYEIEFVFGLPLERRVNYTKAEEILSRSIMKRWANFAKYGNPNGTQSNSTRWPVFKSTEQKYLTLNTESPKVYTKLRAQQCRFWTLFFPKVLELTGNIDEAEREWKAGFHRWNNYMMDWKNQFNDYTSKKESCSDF

Point of comparison: `CCCCNC(=O)OC1CC2CCC1C2` [(R)-(+)-exo-2-norbonyl-N-n-butylcarbamate], Ki 11 nM. Against it:
- CCCCNC(=O)OC1CC2CCC1C2 [(S)-(-)-endo-2-norbornyl-N-n-butylcarbamate] — 5.5-fold lower, 2 nM
- CCCCNC(=O)OC1CC2CCC1C2 [(S)-(-)-exo-2-norbonyl-N-n-butylcarbamate] — 4.5-fold higher, 50 nM
